Values of other authors in patent publication US20140249101A1, “METHODS FOR TREATING HEPATITIS C VIRUS INFECTION” (Gilead Pharmasset LLC, priority 2013, published 2014).
“Also recorded” adds a separate entry of the source.

Test system: hepatitis C virus (HCV)
Settings: ribavirin alone

## NC(=O)c1ncn([C@@H]2O[C@H](CO)[C@@H](O)[C@H]2O)n1 [ribavirin, 1-β-d-ribofuranosyl-1H-1,2,4-triazole-3-carboxamide]
  sustained virologic response: did not produce any sustained virologic response; also recorded: has not been shown to produce SVR
During or after therapy
  effect on HCV RNA levels: did not reduce HCV RNA levels during or after therapy; also recorded: little or no effect on HCV RNA levels
During the course of treatment, some patients with CHC
  effect on alanine aminotransferase (ALT) levels: can normalize alanine aminotransferase (ALT) levels transiently; also recorded: normalized alanine aminotransferase (ALT) levels transiently
